Results published in PMC9168183 (Redox Biology, 2022).

Target: T1, thioredoxin reductase (TrxR) (Rattus norvegicus, UniProt O89049)
T1 sequence (O89049 1-499): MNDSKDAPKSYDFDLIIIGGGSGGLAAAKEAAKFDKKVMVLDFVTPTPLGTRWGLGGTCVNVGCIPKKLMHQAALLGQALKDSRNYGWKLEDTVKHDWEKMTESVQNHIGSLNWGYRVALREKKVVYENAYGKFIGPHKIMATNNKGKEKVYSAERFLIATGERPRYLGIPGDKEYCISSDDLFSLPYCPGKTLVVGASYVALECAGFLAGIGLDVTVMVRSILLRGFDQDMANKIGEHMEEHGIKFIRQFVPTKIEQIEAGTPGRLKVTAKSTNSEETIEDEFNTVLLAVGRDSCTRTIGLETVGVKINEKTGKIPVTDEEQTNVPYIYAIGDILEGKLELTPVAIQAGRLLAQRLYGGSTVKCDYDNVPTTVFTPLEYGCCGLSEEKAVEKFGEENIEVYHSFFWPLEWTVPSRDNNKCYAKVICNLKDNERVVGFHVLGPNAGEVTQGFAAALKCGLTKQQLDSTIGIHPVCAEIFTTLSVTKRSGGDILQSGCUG
Assay: DTNB assay with isolated TrxR, % inhibition at […]
Type: biochemical
Settings: read-out: Isolated TrxR (Inhibition %)

inhibition at 50 µM	Compound
79.7%	C=C1C(=O)O[C@@H]2C[C@@]3(C)CCCC(=C)[C@@H]3C[C@H]12 [compound 5, Isoalantolactone]
76.9%	O=C(/C=C/c1ccc(O)cc1)c1ccc(O)cc1O [compound 4, Isoliquiritigenin]
